Data on 29 compounds can be found in patent US20140378513A1, “USE OF FUNGICIDES IN LIQUID SYSTEMS” (priority 2011, published 2014).

Data set [1] has as its system Pest in infected Scenedesmus dimorphus culture. As to the kind of experiment: Fungicide efficacy on pest control in infected microalgae culture. In kind it is cell-based. Conditions: for Rating: rating scale of 0 to 3 by percent efficacy; for positive efficacy in a first trial confirmed in a second trial: Table 6; for Scenedesmus dimorphus Efficacy confirmation: second trial. An excerpt:
Failure to treat an infected culture results in the collapse and loss of the microalgae culture. […] Test fungicides are graded on a rating scale of 0 to 3 where a score of 0 represents an efficacy of between 0 and 25%, a score of 1 represents an efficacy of between 26 and 50%, a score of 2 represents an efficacy of between 51 and 75% and a score of 3 represents an efficacy of between 76 and 100%.

Another data set concerns microalgae. As to the kind of experiment: Ranges of microalgae toxicity (serial dilution of fungicide in growing culture). Particulars: range in which fungicide begins to show growth effects on microalgae. The text has this: The present disclosure provides for the introduction of fungicides at an effective concentration. Effective concentrations may be determined according to manufacturer's instructions or may be determined empirically. An effective concentration of a fungicide is not toxic to the microalgae being cultured in the liquid system. Methods to determine toxicity are known in the art and include serial dilutions of a test fungicide in a growing liquid culture of microalgae. One of skill in the art would understand that different microalgae may have different ranges of toxicity that may be determined by growth of a microalga in the presence of a serial dilution of a fungicide.
Algae are screened for sensitivity to chemicals by preparing 180 ml of a log phase culture. The log phase culture is transferred into a 96 well microtiter plate at an absorbance at 750 nm (OD750 or A750) of ˜0.2. Twenty microliters of media is provided into the top row as a negative control, the middle six rows receive a 20 microliter dilution, which is a 10 fold dilution of the chemical at each transfer, of the chemical across an appropriate concentration gradient, and the bottom row receives 20 microliter of the solvent used to solubilize the pesticide alone as a control. The total volume per well is 200 μl. Each chemical is tested in triplicate. The growth of the algae is tracked daily by measuring the A750. After 8 days, the growth rate of the algae is measured by fitting the growth curve to a log model and deriving the maximum growth rate (r). The impact of the chemical is calculated by comparing the r of the algae at various dilutions of the pesticide to the control.

The next data set deals with Scenedesmus dimorphus. As to the kind of experiment: Algae sensitivity screen, 96 well, growth rate by A750 over 8 days. In kind it is cell-based. Here is the method: (§1) The total volume per well is 200 μl. Each chemical is tested in triplicate.
The next data set has as its system Scenedesmus species. The description is as above. In kind it is cell-based. Particulars: 8 days. Here is the method: as §1
The test system of the next data set is Desmid species. The description is as above. In kind it is cell-based. Here is the method: as §1
[2] abbreviates: Tetradesmus dimorphus, read-out: Scenedesmus dimorphus efficacy.
Where [3] appears, read: log phase culture, 10 fold dilutions.

As to `CO/C=C(/C(=O)OC)c1ccccc1Oc1cc(Oc2ccccc2C#N)ncn1` [azoxystrobin], the Rating in data set [1] was 0 (a score of 0 represents an efficacy of between 0 and 25%).

For `O=C(Nc1ccccc1)c1ccccc1I` [benodanil, 2-Iodo-N-phenylbenzamide], the “Ranges of Microalgae toxicity” value in the data set on microalgae is reported as 0.3125-1.25 ppm. In data set [1], the “positive efficacy in a first trial confirmed in a second trial” value (“positive efficacy” below) was “not confirmed”; the Rating is 0 (a score of 0 represents an efficacy of between 0 and 25%). Moreover, the activity at 5 ppm in data set [1] (setting [2]) came out at 38.7%. In the data set with Scenedesmus dimorphus (setting [3]), the Scenedesmus dimorphus toxicity was 0.3125-1.25 ppm. Further, the Scenedesmus species toxicity with Scenedesmus species (setting [3]) is 0.3125-1.25 ppm.

In turn, `CSC(=O)c1cccc2nnsc12` [benzo(1,2,3)thiadiazole-7-carbothioic acid-5-methyl ester] showed a Scenedesmus dimorphus efficacy in data set [1] (@ 0.8 ppm, percent of growth of treated culture compared to uninfected control growth rate, first trial) of 17.5% @ 0.8 ppm.

Take `CCC(C)c1cc([N+](=O)[O-])cc([N+](=O)[O-])c1OC(=O)C=C(C)C` (centres unmarked) [binapacryl]: the “Ranges of Microalgae toxicity” value in the data set on microalgae is reported as 0.125-0.5 ppm. The Scenedesmus dimorphus toxicity with Scenedesmus dimorphus (setting [3]) is recorded as 0.125-0.5 ppm. Besides, the Scenedesmus species toxicity with Scenedesmus species (setting [3]) is on record as 0.125-0.5 ppm.

Regarding `O=C(Nc1ccccc1-c1ccc(Cl)cc1)c1cccnc1Cl` [boscalid], the Rating in data set [1] was 0 (a score of 0 represents an efficacy of between 0 and 25%).

`O=[N+]([O-])C(Br)(CO)CO` [bronopol, 2-bromo-2-nitropropane-1,3-diol]: the activity at 5 ppm in data set [1] (setting [2]) came to 14.3%. In addition, in data set [1], the Rating is 0 (a score of 0 represents an efficacy of between 0 and 25%).

As for `O=C1C2CC=CCC2C(=O)N1SC(Cl)(Cl)Cl` (centres unmarked) [captan], the “Ranges of Microalgae toxicity” value in the data set with microalgae is reported as 1.953-125 ppm. Besides, the Rating in data set [1] is 0 (a score of 0 represents an efficacy of between 0 and 25%). Further, the Desmid species toxicity in the data set on Desmid species (setting [3]) is given as 31.25-125 ppm. Also, the Scenedesmus dimorphus toxicity in the data set with Scenedesmus dimorphus (setting [3]) was 1.953-7.813 ppm. In addition, the Scenedesmus species toxicity with Scenedesmus species (setting [3]) is 31.25-125 ppm.

Take `CC1=C(C(=O)Nc2ccccc2)SCCO1` [carboxine, 6-methyl-N-phenyl-2,3-dihydro-1,4-oxathiine-5-carboxamide]: the “Ranges of Microalgae toxicity” value in the data set with microalgae is listed as 0.977-3.906 ppm. Besides, in data set [1], the “positive efficacy” value is reported as “not confirmed”; the Rating was 0 (a score of 0 represents an efficacy of between 0 and 25%). In addition, the activity at 5 ppm in data set [1] (setting [2]) turned out to be 24.6%. The Desmid species toxicity in the data set on Desmid species (setting [3]) is given as 0.977-3.906 ppm. Moreover, the Scenedesmus dimorphus toxicity in the data set with Scenedesmus dimorphus (setting [3]) is 0-0.244 ppm. Further, in the data set on Scenedesmus species (setting [3]), the Scenedesmus species toxicity is reported as 0.244-0.977 ppm.

In the case of `Cc1ccc(-c2c(Cl)nc(C#N)n2S(=O)(=O)N(C)C)cc1` [cyazofamid], in the data set on microalgae, the “Ranges of Microalgae toxicity” value is listed as 0.03125-0.125 ppm. Also, the Rating in data set [1] is 0 (a score of 0 represents an efficacy of between 0 and 25%). Moreover, the Desmid species toxicity in the data set with Desmid species (Desmid species) is reported as 0.125-0.500 ppm. The Scenedesmus dimorphus toxicity in the data set with Scenedesmus dimorphus (Scenedesmus dimorphus) was 0.03125-0.125 ppm. The Scenedesmus species toxicity in the data set on Scenedesmus species (Scenedesmus species) was 0.03125-0.125 ppm.

For the compound `CCNC(=O)NC(=O)/C(C#N)=N/OC` [cymoxanil], in data set [1], the Rating is 0 (a score of 0 represents an efficacy of between 0 and 25%).

`Cc1cc(C2CC2)nc(Nc2ccccc2)n1` [cyprodinil, 4-Cyclopropyl-6-methyl-N-phenylpyrimidin-2-amine]: in data set [1] (setting [2]), the activity at 2 ppm worked out at 8.1%. The Rating in data set [1] was 0 (a score of 0 represents an efficacy of between 0 and 25%).

For the compound `N#CC(Br)(Br)C(N)=O` [dibromocyanoacetamide, 2,2-dibromo-2-cyanoacetamide], in data set [1], the “positive efficacy” value is reported as “not confirmed”; the Rating was 0 (a score of 0 represents an efficacy of between 0 and 25%). For the same compound, the activity at 5 ppm in data set [1] (setting [2]) was 35.4%.

Take `CNC(=O)/C(=N/OC)c1ccccc1COc1cc(C)ccc1C` [dimoxystrobin]: the “Ranges of Microalgae toxicity” value in the data set with microalgae was 0.004-0.0625 ppm. In addition, the Rating in data set [1] was 0 (a score of 0 represents an efficacy of between 0 and 25%). The Desmid species toxicity with Desmid species (setting [3]) is recorded as 0.004-0.0156 ppm. In addition, in the data set with Scenedesmus dimorphus (setting [3]), the Scenedesmus dimorphus toxicity is 0.0156-0.0625 ppm. Further, the Scenedesmus species toxicity in the data set on Scenedesmus species (setting [3]) is 0.0156-0.0625 ppm.

`N#Cc1sc2c(=O)c3ccccc3c(=O)c=2sc1C#N` [dithianon, 5,10-dioxobenzo[g][1,4]benzodithiine-2,3-dicarbonitrile]: the “Ranges of Microalgae toxicity” value in the data set on microalgae is on record as 0.625-2.5 ppm. The “Scenedesmus dimorphus Efficacy confirmation” value in data set [1] (@ 5 ppm) was found to be 52.2% @ 5 ppm. Also, the activity at 5 ppm in data set [1] (setting [2]) is 37%. Moreover, in data set [1], the Rating is 2 (a score of 2 represents an efficacy of between 51 and 75%). Further, the Scenedesmus dimorphus toxicity with Scenedesmus dimorphus (Scenedesmus dimorphus) is 0.625-2.5 ppm.

As to `CC1CN(C2CCCCCCCCCCC2)CC(C)O1` (centres unmarked) [dodemorph], the “Ranges of Microalgae toxicity” value in the data set on microalgae is listed as 0.195-0.781 ppm. Also, in data set [1], the Rating was 0 (a score of 0 represents an efficacy of between 0 and 25%). For the same compound, the Scenedesmus dimorphus toxicity in the data set with Scenedesmus dimorphus (setting [3]) is on record as 0.195-0.781 ppm. In addition, the Scenedesmus species toxicity with Scenedesmus species (setting [3]) is reported as 0.195-0.781 ppm.

On to `CCCCCCCCCCCCNC(=N)N` [dodine, dodecylguanidinium acetate], for which, in data set [1] (@ 2 ppm), the “Scenedesmus dimorphus Efficacy confirmation” value turned out to be 100% @ 2 ppm. In addition, the activity at 2 ppm in data set [1] (setting [2]) was determined as 93.9%. For the same compound, the Rating in data set [1] is 3 (a score of 3 represents an efficacy of between 76 and 100%).

Take `OC(c1ccc(Cl)cc1)(c1cncnc1)c1ccccc1Cl` (centres unmarked) [fenarimol, (2-chlorophenyl)-(4-chlorophenyl)-pyrimidin-5-ylmethanol]: the “Ranges of Microalgae toxicity” value in the data set on microalgae is 0.0489-0.195 ppm. In data set [1], the “positive efficacy” value is “not confirmed”; the Rating is 0 (a score of 0 represents an efficacy of between 0 and 25%). Also, the activity at 2 ppm in data set [1] (setting [2]) came to 31%. In addition, the Scenedesmus dimorphus toxicity in the data set on Scenedesmus dimorphus (setting [3]) was 0.0489-0.195 ppm. Further, the Scenedesmus species toxicity with Scenedesmus species (setting [3]) is 0.0489-0.195 ppm.

As to `CC1(C(=O)Nc2ccc(O)c(Cl)c2Cl)CCCCC1` [fenhexamid], the “Ranges of Microalgae toxicity” value in the data set with microalgae is recorded as 15.63-62.5 ppm. In addition, the Rating in data set [1] was 0 (a score of 0 represents an efficacy of between 0 and 25%). Also, in the data set on Desmid species (Desmid species), the Desmid species toxicity was 15.63-62.5 ppm.

Consider `CCO[PH](=O)O` [fosetyl-aluminum (100 mg), fosetyl-aluminum], for which the Rating in data set [1] is 0 (a score of 0 represents an efficacy of between 0 and 25%).

On to `CO/N=C(/C(=O)OC)c1ccccc1COc1ccccc1C` [kresoxim-methyl], for which the Rating in data set [1] was 0 (a score of 0 represents an efficacy of between 0 and 25%).

With `COCC(=O)N(c1c(C)cccc1C)C(C)C(=O)OC` (centres unmarked) [metalaxyl], in data set [1], the Rating was 0 (a score of 0 represents an efficacy of between 0 and 25%).

As for `CCCC1COC(Cn2cncn2)(c2ccc(Cl)cc2Cl)O1` (centres unmarked) [propiconazole, 1-[[2-(2,4-dichlorophenyl)-4-propyl-1,3-dioxolan-2-yl]methyl]-1,2,4-triazole], the “Scenedesmus dimorphus Efficacy confirmation” value in data set [1] (@ 0.8 ppm) is given as 18.6% @ 0.8 ppm. Also, in data set [1] (setting [2]), the activity at 0.32 ppm amounted to 30.6%. In addition, the Rating in data set [1] was 0 (a score of 0 represents an efficacy of between 0 and 25%).

As for `OC(Cc1ccccc1Cl)(Cn1nc[nH]c1=S)C1(Cl)CC1` (centres unmarked) [prothioconazole], the Rating in data set [1] was 0 (a score of 0 represents an efficacy of between 0 and 25%).

Take `CC(C)(C)C(O)(CCc1ccc(Cl)cc1)Cn1cncn1` (centres unmarked) [tebuconazole]: the Rating in data set [1] is 0 (a score of 0 represents an efficacy of between 0 and 25%).

As for `COC(=O)NC(=S)Nc1ccccc1NC(=S)NC(=O)OC` [thiophanate-methyl, methyl N-[[2-(methoxycarbonylcarbamothioylamino)phenyl]carbamothioyl]carbamate], in data set [1] (setting [2]), the activity at 5 ppm came to 9.6%. In addition, the Rating in data set [1] is 0 (a score of 0 represents an efficacy of between 0 and 25%).

Take `CON=C(C(=O)OC)c1ccccc1CON=C(C)c1cccc(C(F)(F)F)c1` [trifloxystrobin]: in data set [1], the Rating was 0 (a score of 0 represents an efficacy of between 0 and 25%).

Take `O=CNC(N1CCN(C(NC=O)C(Cl)(Cl)Cl)CC1)C(Cl)(Cl)Cl` (centres unmarked) [triforin]: the Rating in data set [1] is 0 (a score of 0 represents an efficacy of between 0 and 25%).

dinocap: the “Ranges of Microalgae toxicity” value with microalgae is given as 0.0039-0.0625 ppm. Also, the Rating in data set [1] is 0 (a score of 0 represents an efficacy of between 0 and 25%). Moreover, the Scenedesmus dimorphus toxicity with Scenedesmus dimorphus (setting [3]) is listed as 0.0039-0.0156 ppm. In addition, in the data set with Scenedesmus species (setting [3]), the Scenedesmus species toxicity was 0.0156-0.0625 ppm.

In the case of mancozeb, the Rating in data set [1] is 0 (a score of 0 represents an efficacy of between 0 and 25%).
